Measured values: patent publication US8389526B2, “3-heteroarylmethyl-imidazo[1,2-b]pyridazin-6-yl derivatives” (Novartis AG, priority 2009, dated 2013)

Tests used:
[1] = target: T1, c-Met receptor tyrosine kinase, GST-c-Met(969-1390) (Homo sapiens, UniProt P08581); assay: EPK c-Met profiling assay (LanthaScreen TR-FRET kinase assay); type: biochemical; details: 2 μM ATP, 0.3 nM enzyme, 60 minutes at room temperature
T1 construct: made in house
Summary of the method: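 Recombinant GST-c-Met(969-1390) cytoplasmic domain, 0.3 nM, phosphorylating 50 nM Fluorescein-PolyEAY with 2 μM ATP, 10 mM MgCl2, 3 mM MnCl2, 60 min at room temperature. EDTA-stopped; phosphoproduct detected by TR-FRET with Tb-PY20 antibody, end-point read. Final compound 0.003-10 μM over 8 concentrations.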

[2] = target: T2, c-Met (Homo sapiens, UniProt P08581); assay: GTL-16 c-Met autophosphorylation measured by AlphaScreen detection; type: cell-based; details: GTL-16 cells, 1 h incubation, AlphaScreen p-c-Met; read-out: GTL-16 IC50 c-Met phosphorylation
T2 construct: adapted to measure the phosphorylation of endogenous cellular proteins in cell lysates; endogenous in cells; host or cells: GTL-16
T2 sequence (P08581 25-1390): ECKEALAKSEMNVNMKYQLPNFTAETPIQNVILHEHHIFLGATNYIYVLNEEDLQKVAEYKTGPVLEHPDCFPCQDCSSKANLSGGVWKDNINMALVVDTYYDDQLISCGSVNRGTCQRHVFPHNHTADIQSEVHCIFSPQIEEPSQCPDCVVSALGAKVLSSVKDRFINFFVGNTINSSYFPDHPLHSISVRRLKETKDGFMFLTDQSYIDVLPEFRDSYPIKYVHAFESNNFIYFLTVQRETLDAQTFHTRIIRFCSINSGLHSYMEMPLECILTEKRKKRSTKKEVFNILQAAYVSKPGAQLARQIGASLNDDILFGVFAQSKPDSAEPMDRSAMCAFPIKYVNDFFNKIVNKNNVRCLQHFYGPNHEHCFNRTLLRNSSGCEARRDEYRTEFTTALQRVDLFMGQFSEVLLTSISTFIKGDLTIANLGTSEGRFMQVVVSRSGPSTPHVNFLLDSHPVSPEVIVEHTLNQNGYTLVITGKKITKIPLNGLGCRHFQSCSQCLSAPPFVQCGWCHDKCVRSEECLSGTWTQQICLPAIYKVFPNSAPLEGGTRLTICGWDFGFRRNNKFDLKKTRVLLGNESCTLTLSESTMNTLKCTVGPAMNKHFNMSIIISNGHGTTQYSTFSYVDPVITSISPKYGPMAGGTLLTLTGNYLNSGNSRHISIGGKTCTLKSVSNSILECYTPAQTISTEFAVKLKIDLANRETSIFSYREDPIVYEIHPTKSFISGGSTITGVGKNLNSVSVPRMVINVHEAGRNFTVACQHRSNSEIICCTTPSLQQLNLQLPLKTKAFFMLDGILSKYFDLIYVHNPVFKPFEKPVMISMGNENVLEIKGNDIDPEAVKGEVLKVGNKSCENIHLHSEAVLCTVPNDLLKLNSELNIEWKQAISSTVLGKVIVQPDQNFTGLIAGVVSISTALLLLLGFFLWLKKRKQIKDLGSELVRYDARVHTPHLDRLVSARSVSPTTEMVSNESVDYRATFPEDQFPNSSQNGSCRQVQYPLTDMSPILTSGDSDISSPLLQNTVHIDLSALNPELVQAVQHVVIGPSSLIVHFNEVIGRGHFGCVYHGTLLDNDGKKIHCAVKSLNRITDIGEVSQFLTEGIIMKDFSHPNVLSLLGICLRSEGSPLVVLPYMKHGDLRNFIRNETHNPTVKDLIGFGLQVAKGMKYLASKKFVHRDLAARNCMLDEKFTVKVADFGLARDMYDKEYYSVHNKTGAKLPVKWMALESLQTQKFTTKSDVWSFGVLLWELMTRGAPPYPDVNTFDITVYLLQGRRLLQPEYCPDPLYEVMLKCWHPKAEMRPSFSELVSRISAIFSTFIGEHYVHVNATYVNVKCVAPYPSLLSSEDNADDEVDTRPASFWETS
Summary of the method: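 GTL-16 MET-amplified gastric cancer cells, serum-free DMEM with 0.1% BSA, exposed to 8-point compound dilutions for 1 h at 37° C (0.11% DMSO final). Lysates probed for phospho-c-Met by AlphaScreen using anti-c-Met antibody, biotinylated PY20 phosphotyrosine antibody, Protein A acceptor and streptavidin donor beads.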

[3] = system: MET-amplified gastric cancer cell line GTL-16; assay: GTL-16 proliferation assay (MTS); type: cell-based; details: Homo sapiens, GTL-16 cells, 72 h incubation
Summary of the method: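 GTL-16 cells were seeded at 3000/well in DMEM with 10% FCS. After 24 h they were treated in triplicate with a 10-point, 3-fold dilution series ([…]; DMSO-only control) for 72 h. Viable cells were measured by MTS, with OD 490 nm read after 30 min.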

T1 sequence (P08581 969-1390): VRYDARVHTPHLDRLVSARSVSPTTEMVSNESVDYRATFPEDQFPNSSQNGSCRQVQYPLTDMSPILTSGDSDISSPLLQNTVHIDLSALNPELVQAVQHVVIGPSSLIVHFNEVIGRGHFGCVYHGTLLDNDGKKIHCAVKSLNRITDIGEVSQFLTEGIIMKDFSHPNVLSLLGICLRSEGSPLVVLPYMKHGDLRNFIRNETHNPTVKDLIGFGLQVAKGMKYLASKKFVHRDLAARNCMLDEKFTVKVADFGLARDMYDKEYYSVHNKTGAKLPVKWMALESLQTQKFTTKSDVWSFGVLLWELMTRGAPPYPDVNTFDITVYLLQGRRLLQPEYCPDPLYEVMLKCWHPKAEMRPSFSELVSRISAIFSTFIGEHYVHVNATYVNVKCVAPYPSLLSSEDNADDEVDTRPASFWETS

| SMILES | IC50 [1] [nM] | IC50 [2] [nM] | IC50 [3] [nM] |
| --- | --- | --- | --- |
| CC(c1c(F)cc2ncccc2c1F)c1cnc2ccc(N3CCN(C)CC3)nn12 (racemic) [Example 8, (rac)-5,7-Difluoro-6-{1-[6-(4-methyl-piperazin-1-yl)-imidazo[1,2-b]pyridazin-3-yl]-ethyl}-quinoline] | 5.7 | < 3 | 15.5 |
| CC(c1cc2cccnc2cc1F)c1cnc2ccc(N3CCN(C)C(=O)C3)nn12 (racemic) [Example 40, (rac)-4-{3-[1-(7-Fluoro-quinolin-6-yl)-ethyl]-imidazo[1,2-b]pyridazin-6-yl}-1-methyl-piperazin-2-one] | 39 | 11 | 147 |
| COC(=O)N1CCN(c2ccc3ncc(Cc4c(F)cc5ncccc5c4F)n3n2)CC1 [Example 36, 4-[3-(5,7-Difluoro-quinolin-6-ylmethyl)-imidazo[1,2-b]pyridazin-6-yl]-piperazine-1-carboxylic acid methyl ester] | 11 | < 3 | 25 |
| C[C@@H](c1c(F)cc2ncccc2c1F)c1cnc2ccc(N3CCN(C(N)=O)CC3)nn12 [Example 16, 4-{3-[(S)-1-(5,7-Difluoro-quinolin-6-yl)-ethyl]-imidazo[1,2-b]pyridazin-6-yl}-piperazine-1-carboxylic acid amide] | 1.7 | 5.5 | 15 |
| C[C@@H](c1c(F)cc2ncccc2c1F)c1cnc2ccc(N3CCNC(=O)[C@H]3C)nn12 [Example 59, (R)-4-{3-[(S)-1-(5,7-Difluoro-quinolin-6-yl)-ethyl]-imidazo[1,2-b]pyridazin-6-yl}-3-methyl-piperazin-2-one] | 3 | 3.6 | 5.6 |
| CN1CCN(c2ccc3ncc(Cc4c(F)cc5ncccc5c4F)n3n2)CC1=O [Example 30, 4-[3-(5,7-Difluoro-quinolin-6-ylmethyl)-imidazo[1,2-b]pyridazin-6-yl]-1-methyl-piperazin-2-one] | 6.6 | < 3 | 37 |
| O=C1CN(c2ccc3ncc(Cc4c(F)cc5ncccc5c4F)n3n2)CCN1 [Example 31, 4-[3-(5,7-Difluoro-quinolin-6-ylmethyl)-imidazo[1,2-b]pyridazin-6-yl]-piperazin-2-one] | 8.2 | 4.7 | 15 |
| CC(c1cc2cccnc2cc1F)c1cnc2ccc(N3CCNC(=O)C3)nn12 (racemic) [Example 41, (rac)-4-{3-[1-(7-Fluoro-quinolin-6-yl)-ethyl]-imidazo[1,2-b]pyridazin-6-yl}-piperazin-2-one] | 23 | < 3 | 49 |
| C[C@@H](c1c(F)cc2c(cnn2C)c1F)c1cnc2ccc(N3CCN(C)C(=O)C3)nn12 [Example 50, 4-{3-[(S)-1-(4,6-Difluoro-1-methyl-1H-indazol-5-yl)-ethyl]-imidazo[1,2-b]pyridazin-6-yl}-1-methyl-piperazin-2-one] | 8.3 | 2.7 | 11 |
| CC(c1ccc2ncccc2c1F)c1cnc2ccc(N3CCN(C)C(=O)C3)nn12 (racemic) [Example 46, (rac)-4-{3-[1-(5-Fluoro-quinolin-6-yl)-ethyl]-imidazo[1,2-b]pyridazin-6-yl}-1-methyl-piperazin-2-one] | 30 | 15 | 47 |
| C[C@@H](c1c(F)cc2ncccc2c1F)c1cnc2ccc(N3CCN(C)CC3)nn12 [Example 9, 5,7-Difluoro-6-{(S)-1-[6-(4-methyl-piperazin-1-yl)-imidazo[1,2-b]pyridazin-3-yl]-ethyl}-quinoline] | 2.9 | 2.2 | 10 |
| CN1CCN(c2ccc3ncc(Cc4c(F)cc5ncccc5c4F)n3n2)CC1 [Example 33, 5,7-Difluoro-6-[6-(4-methyl-piperazin-1-yl)-imidazo[1,2-b]pyridazin-3-ylmethyl]-quinoline] | 14 | 9 | 46 |
